The values that follow come from patent US20060293315A1, “Intermediates of novel heterocyclic compounds having antibacterial activity and process for their preparation” (Dr. Reddy's Laboratories Ltd., priority 2001, published 2006).

Each structure is given as a SMILES string. In brackets after ≈: the same amount, converted by molar mass.

The test system of data set [1] is Staphylococcus aureus 019 MRSA (ATCC 33591). Description: MIC by broth microdilution, Staphylococcus aureus 019 MRSA. The settings on record: DRCC 019, MRSA, broth microdilution in MHB, read-out: Antimicrobial Screening (MIC) Staphylococcus aureus 019 MRSA. It counts as cell-based. Here is the method: (§1) Minimum Inhibiton Concentrations (MICs) were determined by broth microdilution technique as per the guidelines prescribed in the fifth edition of Approved Standards, NCCLS document M7-A5 Vol 20-No 2, 2000 Villinova, Pa.
(§2) Initial stock solution of the test compound was prepared in DMSO. Subsequent two fold dilutions were carried out in sterile Mueller Hinton Broth (Difco) (MHB).
(§3) Frozen cultures stocks were inoculated into 50 ml sterile MHB in 250 ml Erlyn Meyer flasks.
(§4) Composition of MHB is as follows:
(§5) Flasks were incubated for 4 to 5 h at 35° C. on a rotary shaker at 150 rpm. Inoculum was prepared by diluting the culture in sterile MHB to obtain a turbidity of 0.5 McFarland standard. This corresponds to 1-2×10^8 CFU/ml. The stock was further diluted in sterile broth to obtain 1-2×10^6 CFU/ml. 50 μl of the above diluted inoculum was added from 1-10 wells. The plates were incubated overnight at 37° C.

Data set [2] relates to Staphylococcus aureus 213 Smith S (ATCC 49951). As to the kind of experiment: MIC by broth microdilution, Staphylococcus aureus 213 Smith S. It is filed as cell-based. As to conditions: ATCC49951, DRCC 213, Smith S, broth microdilution in MHB, read-out: Antimicrobial Screening (MIC) Staphylococcus aureus 213 Smith S. Here is the method:
as §1, §2, §3, §4, §5

Data set [3] has as its system Staphylococcus aureus 035 S (ATCC 29213). As to the kind of experiment: MIC by broth microdilution, Staphylococcus aureus 035 S. It counts as cell-based. The settings on record: ATCC29213, DRCC 035, S, broth microdilution in MHB, read-out: Antimicrobial Screening (MIC) Staphylococcus aureus 035 S. The method, then: as §1, §2, §3, §4, §5
Data set [4] deals with Enterococcus sp 034 S (Enterococcus faecalis ATCC 29212). Description: MIC by broth microdilution, Enterococcus sp 034 S. It is filed as cell-based. As to conditions: ATCC29212, DRCC 034, S, broth microdilution in MHB, read-out: Antimicrobial Screening (MIC) Enterococcus sp 034 S. Here is the method:
as §1, §2, §3, §4, §5

The subject of data set [5] is Enterococcus sp 153 R (Enterococcus faecalis NCTC 12201). As to the kind of experiment: MIC by broth microdilution, Enterococcus sp 153 R. It counts as cell-based. As to conditions: NCTC12201, DRCC 153, R, broth microdilution in MHB, read-out: Antimicrobial Screening (MIC) Enterococcus sp 153 R. Here is the method:
as §1, §2, §3, §4, §5

For data set [6], the system named is Enterococcus sp 154 R (Enterococcus faecium NCTC 12202). Description: MIC by broth microdilution, Enterococcus sp 154 R. It is filed as cell-based. The settings on record: NCTC12202, DRCC 154, R, broth microdilution in MHB, read-out: Antimicrobial Screening (MIC) Enterococcus sp 154 R. The method, then:
as §1, §2, §3, §4, §5

The next data set concerns Mycobacterium MTCC 006. Description: MIC by broth microdilution, Mycobacterium MTCC 006. As to conditions: MTCC006, broth microdilution in MHB, read-out: Antimicrobial Screening (MIC) Mycobacterium MTCC 006. It is filed as cell-based. The method, then:
as §1, §2, §3, §4, §5

Another data set has as its system Salmorella TA 97. As to the kind of experiment: MIC by broth microdilution, Salmorella TA 97. As to conditions: read-out: Antimicrobial Screening (MIC) Salmorella TA 97. It counts as cell-based. The method, then:
as §1, §2, §3, §4, §5

The subject of data set [7] is M. catarrhalis 300 (Moraxella catarrhalis ATCC 25238). Description: MIC by broth microdilution, M. catarrhalis 300. It counts as cell-based. The settings on record: ATCC25238, DRCC 300, broth microdilution in MHB, read-out: Antimicrobial Screening (MIC) M. catarrhalis 300. The method, then:
as §1, §2, §3, §4, §5

For data set [8], the system named is H. influenzae 432 (Haemophilus influenzae ATCC 49247). As to the kind of experiment: MIC by broth microdilution, H. influenzae 432. It counts as cell-based. As to conditions: ATCC49247, DRCC 432, broth microdilution in MHB, read-out: Antimicrobial Screening (MIC) H. influenzae 432. Here is the method:
as §1, §2, §3, §4, §5

In data set [9] the test system is H. influenzae 433 (Haemophilus influenzae ATCC 49766). As to the kind of experiment: MIC by broth microdilution, H. influenzae 433. It is filed as cell-based. The settings on record: ATCC49766, DRCC 433, broth microdilution in MHB, read-out: Antimicrobial Screening (MIC) H. influenzae 433. Here is the method: as §1, §2, §3, §4, §5
Data set [10] deals with H. influenzae 529 (Haemophilus influenzae ATCC 9006). As to the kind of experiment: MIC by broth microdilution, H. influenzae 529. The settings on record: ATCC9006, DRCC 529, broth microdilution in MHB, read-out: Antimicrobial Screening (MIC) H. influenzae 529. It is filed as cell-based. The method, then:
as §1, §2, §3, §4, §5

In the case of `CCOC(=S)NC[C@H]1CN(c2cc(F)c(N3CNC(=O)C3)c(F)c2)C(=O)O1` [Example 166], the melting point lay within 178 to 180 °C. The MIC in data set [1] came out at 0.5 µg/mL (≈ 1.25 µM). For the same compound, in data set [2], the MIC is 0.5 µg/mL (≈ 1.25 µM). For the same compound, in data set [3], the MIC stood at 0.5 µg/mL (≈ 1.25 µM). Also, in [4], the MIC is 1 µg/mL (≈ 2.5 µM). For the same compound, the MIC in data set [5] was 1 µg/mL (≈ 2.5 µM). In data set [6], the MIC was determined as 1 µg/mL (≈ 2.5 µM). In addition, the MIC in the data set with Mycobacterium MTCC 006 worked out at 32 µg/mL (≈ 79.9 µM). Further, the MIC in the data set with Salmorella TA 97 stood at 32 µg/mL (≈ 79.9 µM). In data set [7], the MIC came out at 32 µg/mL (≈ 79.9 µM). Besides, the MIC in [8] was greater than 32 µg/mL. Also, in [9], the MIC is greater than 32 µg/mL. The MIC in [10] is greater than 32 µg/mL.
Regarding `CC(C)OC(=S)NC[C@H]1CN(c2cc(F)c(N3CNC(=O)C3)c(F)c2)C(=O)O1` [Example 167], the melting point lay within 176 to 178 °C. For the same compound, the MIC in [1] worked out at 2 µg/mL (≈ 4.83 µM). Besides, in [2], the MIC was determined as 2 µg/mL (≈ 4.83 µM). Also, in [3], the MIC was 2 µg/mL (≈ 4.83 µM). Moreover, the MIC in data set [4] was determined as 8 µg/mL (≈ 19.3 µM). Besides, the MIC in [5] was determined as 4 µg/mL (≈ 9.65 µM). The MIC in [6] was determined as 8 µg/mL (≈ 19.3 µM). For the same compound, the MIC in the data set on Mycobacterium MTCC 006 is 32 µg/mL (≈ 77.2 µM). Further, the MIC in the data set on Salmorella TA 97 came to 32 µg/mL (≈ 77.2 µM). For the same compound, in data set [7], the MIC was greater than 32 µg/mL. Further, the MIC in data set [8] is greater than 32 µg/mL. In data set [9], the MIC is greater than 32 µg/mL. For the same compound, the MIC in data set [10] is greater than 32 µg/mL.
